{"source": "patent US9096560B2", "about": "“5-heterocyclylalkyl-3-hydroxy-2-phenylcyclopent-2-enones as herbicides” (Syngenta Limited, priority 2008, dated 2015)", "type_in_all_cases": "in vivo", "key": {"[1]": {"test_system": "Setaria faberi (SETFA)", "experiment": "Example A post-emergence herbicidal test, SETFA", "details": "rate 125 g/ha, evaluated 14 or 15 days after spraying", "method": "(§1) Seeds of a variety of test species were sown in standard soil in pots. After cultivation for one day (pre-emergence) or after 10 days cultivation (post-emergence) under controlled conditions in a glasshouse, the plants were sprayed with an aqueous spray solution derived from the formulation of the technical active ingredient in 0.6 ml acetone and 45 ml formulation solution containing 10.6% Emulsogen EL (Registry number 61791-12-6), 42.2% N-methylpyrrolidone, 42.2% dipropylene glycol monomethyl ether (Registry number 34590-94-8) and 0.2% X-77 (Registry number 11097-66-8). The test plants were then grown in a greenhouse under optimum conditions until, 14 or 15 days later for post-emergence and 19 or 20 days for pre-emergence, the test was evaluated (100=total damage to plant; 0=no damage to plant). Alopecurus myosuroides (ALOMY), Avena fatua (AVEFA), Lolium perenne (LOLPE), Setaria faberi (SETFA), Digitaria sanguinalis (DIGSA), Echinochloa crus-galli (ECHCG) Post-Emergence Activity"}, "[2]": {"test_system": "Avena fatua (AVEFA)", "experiment": "Example A pre-emergence herbicidal test, AVEFA", "details": "rate 500 g/ha, evaluated 19 or 20 days after spraying", "method": "as §1, with “Pre-Emergence” for “Post-Emergence”"}, "[3]": {"test_system": "Lolium perenne (LOLPE)", "experiment": "Example A pre-emergence herbicidal test, LOLPE", "details": "rate 500 g/ha, evaluated 19 or 20 days after spraying", "method": "as §1, with “Pre-Emergence” for “Post-Emergence”"}, "[4]": {"test_system": "Alopecurus myosuroides (ALOMY)", "experiment": "Example A post-emergence herbicidal test, ALOMY", "details": "rate 125 g/ha, evaluated 14 or 15 days after spraying", "method": "as §1"}, "[5]": {"test_system": "Avena fatua (AVEFA)", "experiment": "Example A post-emergence herbicidal test, AVEFA", "details": "rate 125 g/ha, evaluated 14 or 15 days after spraying", "method": "as §1"}, "[6]": {"test_system": "Lolium perenne (LOLPE)", "experiment": "Example A post-emergence herbicidal test, LOLPE", "details": "rate 125 g/ha, evaluated 14 or 15 days after spraying", "method": "as §1"}, "[7]": {"test_system": "Alopecurus myosuroides (ALOMY)", "experiment": "Example A pre-emergence herbicidal test, ALOMY", "details": "rate 500 g/ha, evaluated 19 or 20 days after spraying", "method": "as §1, with “Pre-Emergence” for “Post-Emergence”"}, "[8]": {"test_system": "Digitaria sanguinalis (DIGSA)", "experiment": "Example A pre-emergence herbicidal test, DIGSA", "details": "rate 500 g/ha, evaluated 19 or 20 days after spraying", "method": "as §1, with “Pre-Emergence” for “Post-Emergence”"}, "[9]": {"test_system": "Echinochloa crus-galli (ECHCG)", "experiment": "Example A pre-emergence herbicidal test, ECHCG", "details": "rate 500 g/ha, evaluated 19 or 20 days after spraying", "method": "as §1, with “Pre-Emergence” for “Post-Emergence”"}, "[10]": {"test_system": "Setaria faberi (SETFA)", "experiment": "Example A pre-emergence herbicidal test, SETFA", "details": "rate 500 g/ha, evaluated 19 or 20 days after spraying", "method": "as §1, with “Pre-Emergence” for “Post-Emergence”"}, "[11]": {"test_system": "Digitaria sanguinalis (DIGSA)", "experiment": "Example A post-emergence herbicidal test, DIGSA", "details": "rate 125 g/ha, evaluated 14 or 15 days after spraying", "method": "as §1"}, "[12]": {"test_system": "Echinochloa crus-galli (ECHCG)", "experiment": "Example A post-emergence herbicidal test, ECHCG", "details": "rate 125 g/ha, evaluated 14 or 15 days after spraying", "method": "as §1"}}}
{"smiles": "CCc1cc(C)cc(CC)c1C1C(=O)CC(CC2CCOCC2)C1=O", "note": "(stereo not drawn) [Compound T1]", "values": [{"measurement": "Post-Emergence Activity SETFA (100=total damage to plant; 0=no damage to plant)", "setting": "[1]", "value": 70}, {"measurement": "Pre-Emergence Activity AVEFA (100=total damage to plant; 0=no damage to plant)", "setting": "[2]", "value": 90}, {"measurement": "Pre-Emergence Activity LOLPE (100=total damage to plant; 0=no damage to plant)", "setting": "[3]", "value": 100}, {"measurement": "Post-Emergence Activity ALOMY (100=total damage to plant; 0=no damage to plant)", "setting": "[4]", "value": 100}, {"measurement": "Post-Emergence Activity AVEFA (100=total damage to plant; 0=no damage to plant)", "setting": "[5]", "value": 90}, {"measurement": "Post-Emergence Activity LOLPE (100=total damage to plant; 0=no damage to plant)", "setting": "[6]", "value": 100}, {"measurement": "Pre-Emergence Activity ALOMY (100=total damage to plant; 0=no damage to plant)", "setting": "[7]", "value": 100}, {"measurement": "Pre-Emergence Activity DIGSA (100=total damage to plant; 0=no damage to plant)", "setting": "[8]", "value": 100}, {"measurement": "Pre-Emergence Activity ECHCG (100=total damage to plant; 0=no damage to plant)", "setting": "[9]", "value": 80}, {"measurement": "Pre-Emergence Activity SETFA (100=total damage to plant; 0=no damage to plant)", "setting": "[10]", "value": 70}, {"measurement": "Post-Emergence Activity DIGSA (100=total damage to plant; 0=no damage to plant)", "setting": "[11]", "value": 100}, {"measurement": "Post-Emergence Activity ECHCG (100=total damage to plant; 0=no damage to plant)", "setting": "[12]", "value": 100}]}
{"smiles": "CCc1ccc(-c2ccc(Cl)cc2)cc1C1C(=O)CC(CC2CCOCC2)C1=O", "note": "(stereo not drawn) [Compound T2]", "values": [{"measurement": "Post-Emergence Activity SETFA (100=total damage to plant; 0=no damage to plant)", "setting": "[1]", "value": 100}, {"measurement": "Pre-Emergence Activity AVEFA (100=total damage to plant; 0=no damage to plant)", "setting": "[2]", "value": 10}, {"measurement": "Pre-Emergence Activity LOLPE (100=total damage to plant; 0=no damage to plant)", "setting": "[3]", "value": 90}, {"measurement": "Post-Emergence Activity ALOMY (100=total damage to plant; 0=no damage to plant)", "setting": "[4]", "value": 80}, {"measurement": "Post-Emergence Activity AVEFA (100=total damage to plant; 0=no damage to plant)", "setting": "[5]", "value": 40}, {"measurement": "Post-Emergence Activity LOLPE (100=total damage to plant; 0=no damage to plant)", "setting": "[6]", "value": 20}, {"measurement": "Pre-Emergence Activity ALOMY (100=total damage to plant; 0=no damage to plant)", "setting": "[7]", "value": 70}, {"measurement": "Pre-Emergence Activity DIGSA (100=total damage to plant; 0=no damage to plant)", "setting": "[8]", "value": 80}, {"measurement": "Pre-Emergence Activity ECHCG (100=total damage to plant; 0=no damage to plant)", "setting": "[9]", "value": 70}, {"measurement": "Pre-Emergence Activity SETFA (100=total damage to plant; 0=no damage to plant)", "setting": "[10]", "value": 70}, {"measurement": "Post-Emergence Activity DIGSA (100=total damage to plant; 0=no damage to plant)", "setting": "[11]", "value": 100}, {"measurement": "Post-Emergence Activity ECHCG (100=total damage to plant; 0=no damage to plant)", "setting": "[12]", "value": 100}]}
